Measured values from ChEMBL document CHEMBL1649335, “Discovery of {1-[4-(2-{hexahydropyrrolo[3,4-c]pyrrol-2(1H)-yl}-1H-benzimidazol-1-yl)piperidin-1-yl]cyclooctyl}methanol, systemically potent novel non-peptide agonist of nociceptin/orphanin FQ receptor as analgesic for the treatment of neuropathic pain: design, synthesis, and structure-activity …” (Bioorg Med Chem, 2010).
The source made the active and inactive calls.

Tests used:
Rattus norvegicus [1] = assay: Antiallodynic activity against von Frey hair mechanically stimulated neuropathic pain in Sprague-Dawley rat assessed as effect on allodynia in contralateral paw at 1 to 30 mg/kg, sc after 1 hr; assay type: functional, organism-based
Rattus norvegicus [2] = species on record: Rattus norvegicus; assay: Inhibition of rat central benzodiazepine receptor at 1 uM relative to control
[3] = molecular target: Muscarinic acetylcholine receptor M3 (Homo sapiens) (UniProt P20309); assay: Inhibition of human muscarinic M3 receptor at 1 uM relative to control
Sequence of Muscarinic acetylcholine receptor M3 (Homo sapiens) (P20309 whole entry, looked up): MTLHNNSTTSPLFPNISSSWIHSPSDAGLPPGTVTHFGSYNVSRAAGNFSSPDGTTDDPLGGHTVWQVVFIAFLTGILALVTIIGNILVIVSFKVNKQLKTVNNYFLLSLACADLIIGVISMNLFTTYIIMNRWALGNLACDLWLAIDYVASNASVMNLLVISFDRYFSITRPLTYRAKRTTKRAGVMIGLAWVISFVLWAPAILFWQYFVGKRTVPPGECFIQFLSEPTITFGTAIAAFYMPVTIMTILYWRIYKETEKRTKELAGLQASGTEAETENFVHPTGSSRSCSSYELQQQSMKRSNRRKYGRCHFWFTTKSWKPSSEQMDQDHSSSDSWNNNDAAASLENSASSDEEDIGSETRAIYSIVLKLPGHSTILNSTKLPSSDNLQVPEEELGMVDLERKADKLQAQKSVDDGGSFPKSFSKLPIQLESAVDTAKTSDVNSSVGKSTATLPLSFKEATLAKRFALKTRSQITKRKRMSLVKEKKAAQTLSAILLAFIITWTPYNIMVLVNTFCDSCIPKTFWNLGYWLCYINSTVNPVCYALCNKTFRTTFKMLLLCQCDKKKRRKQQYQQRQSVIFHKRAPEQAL

Rattus norvegicus [4] = species on record: Rattus norvegicus; assay: Inhibition of rat sodium channel site 2 at 1 uM relative to control
Rattus norvegicus [5] = species on record: Rattus norvegicus; assay: Inhibition of rat GABA transporter at 1 uM relative to control
[6] = molecular target: L-type calcium channel, verapamil site (Rattus norvegicus, UniProt P22002+P27732+Q02485); assay: Inhibition of rat L-type calcium channel verapamil site at 1 uM relative to control
[7] = molecular target: Adrenergic receptor alpha-1 (Rattus norvegicus) (UniProt P15823+P23944+P43140); assay: Inhibition of rat alpha1 adrenoceptor at 1 uM relative to control
[8] = molecular target: Beta-1 adrenergic receptor (Homo sapiens) (UniProt P08588); assay: Inhibition of human beta1 adrenoceptor at 1 uM relative to control
Sequence of Beta-1 adrenergic receptor (Homo sapiens) (P08588 whole entry, looked up): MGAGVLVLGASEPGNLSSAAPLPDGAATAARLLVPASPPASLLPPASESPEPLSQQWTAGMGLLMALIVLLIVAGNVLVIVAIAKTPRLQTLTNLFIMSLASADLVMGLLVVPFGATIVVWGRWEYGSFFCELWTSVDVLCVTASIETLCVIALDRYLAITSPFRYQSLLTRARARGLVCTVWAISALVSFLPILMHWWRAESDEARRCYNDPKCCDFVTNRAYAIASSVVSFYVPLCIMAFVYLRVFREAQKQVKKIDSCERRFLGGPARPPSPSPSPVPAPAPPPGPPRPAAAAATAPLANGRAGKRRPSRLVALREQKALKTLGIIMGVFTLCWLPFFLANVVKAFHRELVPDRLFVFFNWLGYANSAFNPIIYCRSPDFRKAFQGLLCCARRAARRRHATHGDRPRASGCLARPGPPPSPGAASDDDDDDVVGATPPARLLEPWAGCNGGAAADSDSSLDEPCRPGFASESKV

[9] = molecular target: Tyrosine 3-monooxygenase (Rattus norvegicus) (UniProt P04177); assay: Inhibition of rat tyrosine hydroxylase at 1 uM relative to control
Sequence of Tyrosine 3-monooxygenase (Rattus norvegicus) (P04177 whole entry): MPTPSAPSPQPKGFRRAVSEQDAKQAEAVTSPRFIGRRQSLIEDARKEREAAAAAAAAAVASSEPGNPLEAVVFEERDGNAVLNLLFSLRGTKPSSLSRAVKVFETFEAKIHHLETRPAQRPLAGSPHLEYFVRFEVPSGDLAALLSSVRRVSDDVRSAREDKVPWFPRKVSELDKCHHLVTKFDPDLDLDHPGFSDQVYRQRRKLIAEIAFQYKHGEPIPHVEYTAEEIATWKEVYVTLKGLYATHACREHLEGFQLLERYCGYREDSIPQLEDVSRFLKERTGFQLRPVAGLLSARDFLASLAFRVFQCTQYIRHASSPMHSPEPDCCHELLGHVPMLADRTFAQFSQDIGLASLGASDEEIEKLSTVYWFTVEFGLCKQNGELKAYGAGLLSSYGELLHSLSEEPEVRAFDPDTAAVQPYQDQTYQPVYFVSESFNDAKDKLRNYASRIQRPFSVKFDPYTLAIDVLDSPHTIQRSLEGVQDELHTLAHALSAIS

[10] = molecular target: Muscarinic acetylcholine receptor M2 (Homo sapiens) (UniProt P08172); assay: Inhibition of human muscarinic M2 receptor at 1 uM relative to control
Sequence of Muscarinic acetylcholine receptor M2 (Homo sapiens) (P08172 whole entry): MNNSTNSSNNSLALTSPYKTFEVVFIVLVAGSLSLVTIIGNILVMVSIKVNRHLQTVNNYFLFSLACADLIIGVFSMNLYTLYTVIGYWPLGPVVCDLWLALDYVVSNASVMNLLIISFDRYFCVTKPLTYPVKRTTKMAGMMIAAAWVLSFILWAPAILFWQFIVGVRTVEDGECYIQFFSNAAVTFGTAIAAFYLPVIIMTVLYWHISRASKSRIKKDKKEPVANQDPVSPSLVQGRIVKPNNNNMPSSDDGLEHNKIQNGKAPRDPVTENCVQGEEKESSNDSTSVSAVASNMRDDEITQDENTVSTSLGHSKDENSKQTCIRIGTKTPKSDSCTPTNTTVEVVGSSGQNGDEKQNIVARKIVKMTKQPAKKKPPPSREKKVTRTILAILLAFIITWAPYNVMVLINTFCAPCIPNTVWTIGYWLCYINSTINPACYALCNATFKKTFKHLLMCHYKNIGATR

Rattus norvegicus [11] = species on record: Rattus norvegicus; assay: Inhibition of rat sigma receptor at 1 uM relative to control
Rattus norvegicus [12] = species on record: Rattus norvegicus; assay: Inhibition of rat K+V channel at 1 uM relative to control
Rattus norvegicus [13] = species on record: Rattus norvegicus; assay: Inhibition of rat glycine receptor at 1 uM relative to control
[14] = molecular target: L-type calcium channel, diltiazem site (Rattus norvegicus, UniProt P22002+P27732+Q02485); assay: Inhibition of rat L-type calcium channel diltiazem site at 1 uM relative to control
Rattus norvegicus [15] = assay: Antiallodynic activity against von Frey hair mechanically stimulated neuropathic pain in Sprague-Dawley rat assessed as increase of response threshold at 30 mg/kg, sc after 2 hrs relative to control; assay type: functional; details: route subcutaneous
[16] = molecular target: Cannabinoid receptor 1 (Homo sapiens) (UniProt P21554); assay: Inhibition of human cannabinoid CB1 receptor at 1 uM relative to control
Sequence of Cannabinoid receptor 1 (Homo sapiens) (P21554 whole entry): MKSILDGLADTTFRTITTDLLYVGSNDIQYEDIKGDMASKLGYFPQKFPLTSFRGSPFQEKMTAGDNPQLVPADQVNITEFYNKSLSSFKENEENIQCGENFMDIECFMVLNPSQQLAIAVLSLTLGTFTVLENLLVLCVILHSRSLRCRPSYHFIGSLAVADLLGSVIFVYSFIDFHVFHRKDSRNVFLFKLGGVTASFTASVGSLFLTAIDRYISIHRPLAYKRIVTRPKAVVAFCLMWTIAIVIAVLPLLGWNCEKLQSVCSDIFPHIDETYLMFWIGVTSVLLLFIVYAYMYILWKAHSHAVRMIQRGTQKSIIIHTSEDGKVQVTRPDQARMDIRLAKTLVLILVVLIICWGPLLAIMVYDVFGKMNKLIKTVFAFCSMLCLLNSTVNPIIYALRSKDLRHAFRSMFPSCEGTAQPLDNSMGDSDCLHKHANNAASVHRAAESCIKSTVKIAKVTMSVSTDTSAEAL

Rattus norvegicus [17] = assay: Toxicity in von Frey hair mechanically stimulated neuropathic pain Sprague-Dawley rat model assessed as respiratory depression at up to 170 nmol/site, administered intrathecally; assay type: organism-based; details: in vivo, icv_or_intrathecal
Rattus norvegicus [18] = species on record: Rattus norvegicus; assay: Inhibition of rat N-type calcium channel at 1 uM relative to control
monoamine oxidase A = monoamine oxidase A (Homo sapiens, UniProt P21397); assay: Inhibition of human monoamine oxidase A at 1 uM relative to control
Sequence of monoamine oxidase A (P21397 whole entry): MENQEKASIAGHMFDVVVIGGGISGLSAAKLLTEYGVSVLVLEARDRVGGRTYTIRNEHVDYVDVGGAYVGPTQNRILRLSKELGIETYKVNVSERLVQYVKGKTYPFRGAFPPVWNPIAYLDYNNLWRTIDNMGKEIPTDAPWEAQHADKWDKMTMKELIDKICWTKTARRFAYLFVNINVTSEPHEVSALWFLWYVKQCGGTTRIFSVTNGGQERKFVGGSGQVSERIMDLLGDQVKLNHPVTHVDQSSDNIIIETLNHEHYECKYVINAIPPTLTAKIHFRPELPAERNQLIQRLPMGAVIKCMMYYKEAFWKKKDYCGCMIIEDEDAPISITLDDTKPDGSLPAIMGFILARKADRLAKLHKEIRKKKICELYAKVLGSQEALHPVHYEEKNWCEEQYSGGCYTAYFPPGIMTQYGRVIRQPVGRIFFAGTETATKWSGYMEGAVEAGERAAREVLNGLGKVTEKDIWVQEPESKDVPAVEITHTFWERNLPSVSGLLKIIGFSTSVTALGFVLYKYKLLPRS

[19] = molecular target: Adrenergic receptor alpha-2 (Rattus norvegicus) (UniProt P22086+P19328+P22909); assay: Inhibition of rat alpha2 adrenoceptor at 1 uM relative to control
[20] = Drug level Sprague-Dawley rat brain at 10 mg/kg, sc after […]; assay type: ADME, organism-based; set-up: dose 10 mg/kg, route subcutaneous; details: read-out: Drug uptake
[21] = molecular target: Cysteinyl leukotriene receptor 1 (Homo sapiens) (UniProt Q9Y271); assay: Inhibition of human leukotriene D4 receptor at 1 uM relative to control
Sequence of Cysteinyl leukotriene receptor 1 (Homo sapiens) (Q9Y271 whole entry): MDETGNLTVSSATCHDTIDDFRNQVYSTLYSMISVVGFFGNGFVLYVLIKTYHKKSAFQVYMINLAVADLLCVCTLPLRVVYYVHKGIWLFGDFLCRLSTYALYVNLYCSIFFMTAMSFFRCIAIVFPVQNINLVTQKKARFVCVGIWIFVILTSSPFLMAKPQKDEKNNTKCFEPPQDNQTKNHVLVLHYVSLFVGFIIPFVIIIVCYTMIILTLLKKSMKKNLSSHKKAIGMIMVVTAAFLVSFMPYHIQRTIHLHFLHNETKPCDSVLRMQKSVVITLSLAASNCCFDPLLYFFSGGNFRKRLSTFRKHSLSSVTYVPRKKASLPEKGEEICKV

[22] = molecular target: Type-2 angiotensin II receptor (Homo sapiens) (UniProt P50052); assay: Inhibition of human angiotensin 2 AT2 receptor at 1 uM relative to control
Sequence of Type-2 angiotensin II receptor (Homo sapiens) (P50052 whole entry): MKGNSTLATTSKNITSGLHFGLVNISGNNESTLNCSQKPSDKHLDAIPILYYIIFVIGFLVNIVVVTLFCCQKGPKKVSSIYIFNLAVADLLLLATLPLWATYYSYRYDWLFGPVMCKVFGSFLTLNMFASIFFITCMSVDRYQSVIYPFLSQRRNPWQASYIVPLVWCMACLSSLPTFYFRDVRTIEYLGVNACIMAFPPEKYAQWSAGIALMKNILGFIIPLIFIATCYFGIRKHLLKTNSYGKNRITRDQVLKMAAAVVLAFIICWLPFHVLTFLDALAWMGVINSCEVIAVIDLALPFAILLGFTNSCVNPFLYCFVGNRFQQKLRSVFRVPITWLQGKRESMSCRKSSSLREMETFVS

[23] = molecular target: Sodium-dependent serotonin transporter (Homo sapiens) (UniProt P31645); assay: Inhibition of human 5-HT transporter at 1 uM relative to control
Sequence of Sodium-dependent serotonin transporter (Homo sapiens) (P31645 whole entry, looked up): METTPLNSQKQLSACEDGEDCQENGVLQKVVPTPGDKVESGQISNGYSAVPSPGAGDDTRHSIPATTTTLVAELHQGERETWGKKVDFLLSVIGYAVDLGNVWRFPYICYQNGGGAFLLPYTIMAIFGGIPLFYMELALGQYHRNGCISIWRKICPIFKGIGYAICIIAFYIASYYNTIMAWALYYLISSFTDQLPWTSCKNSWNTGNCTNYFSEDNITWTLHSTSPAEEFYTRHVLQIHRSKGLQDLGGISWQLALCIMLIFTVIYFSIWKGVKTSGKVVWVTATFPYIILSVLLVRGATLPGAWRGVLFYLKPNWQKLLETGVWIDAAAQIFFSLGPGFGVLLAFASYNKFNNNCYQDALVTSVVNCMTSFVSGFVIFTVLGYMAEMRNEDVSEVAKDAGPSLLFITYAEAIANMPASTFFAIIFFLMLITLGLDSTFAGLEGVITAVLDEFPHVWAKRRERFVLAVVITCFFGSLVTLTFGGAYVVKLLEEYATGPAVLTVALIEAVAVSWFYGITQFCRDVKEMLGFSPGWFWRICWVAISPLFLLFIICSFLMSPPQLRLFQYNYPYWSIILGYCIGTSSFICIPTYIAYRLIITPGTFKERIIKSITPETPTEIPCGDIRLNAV

Rattus norvegicus [24] = assay: Antiallodynic activity against von Frey hair mechanically stimulated neuropathic pain in Sprague-Dawley rat assessed as increase of response threshold per site at 5.5 to 170 nmol/site, icv after 1 hr; assay type: functional, organism-based
Rattus norvegicus [25] = species on record: Rattus norvegicus; assay: Inhibition of rat kainate receptor at 1 uM relative to control

In the case of `OCC1(N2CCC(n3c(N4CC5CNCC5C4)nc4ccccc43)CC2)CCCCCCC1` (stereo unspecified), the Activity (Rattus norvegicus [1]) is reported as “inactive”, the inhibition (Rattus norvegicus [2]) is reported as less than 10% and the inhibition [3] is reported as less than 10%. It also gave an inhibition (Rattus norvegicus [4]) of less than 10%, an inhibition (Rattus norvegicus [5]) of 24% and an inhibition at 1 µM [6] of less than 10%. The inhibition [7] was 16%, the inhibition [8] was less than 10% and the inhibition [9] was less than 10%. It also gave an inhibition [10] of 19%, an inhibition (Rattus norvegicus [11]) of 10% and an inhibition (Rattus norvegicus [12]) of less than 10%. For the same compound, the inhibition (Rattus norvegicus [13]) was less than 10%, the inhibition at 1 µM [14] was 18% and the Activity (Rattus norvegicus [15]) was 35.8%. The inhibition [16] was 18%, the Activity (Rattus norvegicus [17]) was “Non-toxic” and the inhibition (Rattus norvegicus [18]) was less than 10%. For the same compound, the inhibition at 1 µM (monoamine oxidase A) was 12%, the inhibition [19] was less than 10% and the concentration at […] [20] was 226 ng/mL. The inhibition [21] was less than 10%, the inhibition [22] was less than 10% and the inhibition [23] was less than 10%. The ED50 (Rattus norvegicus [24]) was “inactive” and the inhibition (Rattus norvegicus [25]) was 32%.
